According to ChEMBL document CHEMBL1201862, “PubChem BioAssay data set” (2004):
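Protocol summary: plate cells (96-well), add compound at 5 concentrations, incubate 48 h, interpolate endpoints linearly. GI50: concentration for 50% inhibition of growth.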 The source made the active and inactive calls. Rule as the data show it: active = GI50 up to about 1.1 µM and inactive = higher.

Experiments:
Test in all cases: NCI-60 cell line screen, 48 h
OVCAR-8 = test system: OVCAR-8
DU-145 = test system: DU-145
A498 = test system: A498
NCI/ADR-RES = test system: NCI/ADR-RES
UACC-62 = test system: UACC-62
HL-60 = test system: HL-60
Hs-578T = test system: Hs-578T
CAKI-1 = test system: CAKI-1
LOX IMVI = test system: LOX IMVI
OVCAR-4 = test system: OVCAR-4
RPMI-8226 = test system: RPMI-8226
SF-539 = test system: SF-539
MDA-N = test system: MDA-N
SK-OV-3 = test system: SK-OV-3
HCC 2998 = test system: HCC 2998
SF-268 = test system: SF-268
HOP-92 = test system: HOP-92
CCRF-CEM = test system: CCRF-CEM
NCI-H522 = test system: NCI-H522
SNB-75 = test system: SNB-75

Row | SMILES | GI50 (OVCAR-8) | GI50 (DU-145) | GI50 (A498) | GI50 (NCI/ADR-RES) | GI50 (UACC-62) | GI50 (HL-60) | GI50 (Hs-578T) | GI50 (CAKI-1) | GI50 (LOX IMVI) | GI50 (OVCAR-4) | GI50 (RPMI-8226) | GI50 (SF-539) | GI50 (MDA-N) | GI50 (SK-OV-3) | GI50 (HCC 2998) | GI50 (SF-268) | GI50 (HOP-92) | GI50 (CCRF-CEM) | GI50 (NCI-H522) | GI50 (SNB-75)
1 | C/C(=N\N=C1/C(=O)OC(c2ccccc2)=C1C(=O)c1ccccc1)c1ccc([N+](=O)[O-])cc1 | 35.7 µM (inactive) | 44.4 µM (inactive) | > 100 µM (inactive) | 60.7 µM (inactive) | 38.9 µM (inactive) | 35.8 µM (inactive) | 54.3 µM (inactive) | 48.2 µM (inactive) | 34.8 µM (inactive) | 37.4 µM (inactive) | 21.5 µM (inactive) | 65.2 µM (inactive) | 87.9 µM (inactive) | 85.3 µM (inactive) | 47.9 µM (inactive) | > 100 µM (inactive) | 20.5 µM (inactive) | 25.6 µM (inactive) | 27.7 µM (inactive) | –
2 | COc1ccc2c(c1)CCc1cc(OC)ccc1/[N+]([O-])=[N+]\2[O-] | 10.4 µM (inactive) | 18.1 µM (inactive) | 16.2 µM (inactive) | 24.9 µM (inactive) | 15.8 µM (inactive) | 6.11 µM (inactive) | 25.1 µM (inactive) | 17.6 µM (inactive) | 15 µM (inactive) | – | 4.86 µM (inactive) | 21.2 µM (inactive) | 14.3 µM (inactive) | 18.7 µM (inactive) | 30.1 µM (inactive) | 16.7 µM (inactive) | 13.2 µM (inactive) | 1.92 µM (inactive) | 5.93 µM (inactive) | 17.9 µM (inactive)
3 | COC(=O)c1cc(C)n(CN(Cn2nc(C(=O)OC)cc2C)c2ccccc2)n1 | 19.4 µM (inactive) | 25.9 µM (inactive) | > 100 µM (inactive) | 21.2 µM (inactive) | 15.1 µM (inactive) | 4.7 µM (inactive) | > 100 µM (inactive) | 37.8 µM (inactive) | 7 µM (inactive) | 18.4 µM (inactive) | 17.3 µM (inactive) | 17.7 µM (inactive) | 38.5 µM (inactive) | > 100 µM (inactive) | – | 34 µM (inactive) | 66.1 µM (inactive) | 16 µM (inactive) | 39 µM (inactive) | –
4 | CON(C)C(=O)CNC(=O)OCC1c2ccccc2-c2ccccc21 | > 100 µM (inactive) | > 100 µM (inactive) | 57.5 µM (inactive) | > 100 µM (inactive) | > 100 µM (inactive) | 25.5 µM (inactive) | > 100 µM (inactive) | – | 18.8 µM (inactive) | > 100 µM (inactive) | 36.2 µM (inactive) | > 100 µM (inactive) | > 100 µM (inactive) | > 100 µM (inactive) | > 100 µM (inactive) | > 100 µM (inactive) | 93.1 µM (inactive) | 44.1 µM (inactive) | > 100 µM (inactive) | > 100 µM (inactive)
5 | CO[C@@H]1[C@@H](OC2OC(C)C(OC3CC(C)(O)C(OC(=O)CC(C)C)C(C)O3)C(N(C)C)C2O)[C@@H](CC=O)C[C@@H](C)C(=O)/C=C/C2O[C@H]2C[C@@H](C)OC(=O)C[C@H]1OC(C)=O (some centres undefined) | 22.6 µM (inactive) | 14.6 µM (inactive) | 23 µM (inactive) | 31 µM (inactive) | 21.4 µM (inactive) | 6.47 µM (inactive) | 37.4 µM (inactive) | – | 15.8 µM (inactive) | 15.2 µM (inactive) | 17.7 µM (inactive) | 19.6 µM (inactive) | 15.2 µM (inactive) | 39.2 µM (inactive) | 17.7 µM (inactive) | 79.1 µM (inactive) | 4.46 µM (inactive) | 9.77 µM (inactive) | 16.6 µM (inactive) | 31.6 µM (inactive)
6 | O=C(Nc1ccc2ccccc2c1)c1cc2cc(CCl)ccc2oc1=O | > 100 µM (inactive) | > 100 µM (inactive) | > 100 µM (inactive) | > 100 µM (inactive) | > 100 µM (inactive) | > 100 µM (inactive) | 1.55 µM (inactive) | > 100 µM (inactive) | > 100 µM (inactive) | > 100 µM (inactive) | > 100 µM (inactive) | – | > 100 µM (inactive) | 38.5 µM (inactive) | > 100 µM (inactive) | 14.2 µM (inactive) | 51.5 µM (inactive) | 55.5 µM (inactive) | 74 µM (inactive) | 15.2 µM (inactive)
7 | Cc1cc(C)nc(SCCc2cccc[n+]2C)n1 | > 100 µM (inactive) | > 100 µM (inactive) | 60.7 µM (inactive) | > 100 µM (inactive) | > 100 µM (inactive) | > 100 µM (inactive) | > 100 µM (inactive) | > 100 µM (inactive) | > 100 µM (inactive) | > 100 µM (inactive) | > 100 µM (inactive) | – | > 100 µM (inactive) | > 100 µM (inactive) | > 100 µM (inactive) | > 100 µM (inactive) | > 100 µM (inactive) | > 100 µM (inactive) | > 100 µM (inactive) | > 100 µM (inactive)
8 | Nc1nc(N)c2c(Cl)c(CNc3ccc(Cl)c(Cl)c3)ccc2n1 | < 0.01 µM (active) | 0.15 µM (active) | 0.0682 µM (active) | < 0.01 µM (active) | < 0.01 µM (active) | < 0.01 µM (active) | 1.6 µM (inactive) | – | < 0.01 µM (active) | 0.871 µM (active) | 0.181 µM (active) | 0.016 µM (active) | < 0.01 µM (active) | 0.574 µM (active) | 0.0146 µM (active) | 0.0116 µM (active) | 0.445 µM (active) | < 0.01 µM (active) | 0.0499 µM (active) | 2.64 µM (inactive)
9 | O=C1CSC(c2cccc(Cl)c2)N1c1ccc(-c2ccc(-n3c(-c4ccccc4)nc4ccccc4c3=O)cc2)cc1 (centres undefined) | 46.1 µM (inactive) | 53.7 µM (inactive) | > 100 µM (inactive) | 36.9 µM (inactive) | 31.4 µM (inactive) | 21.8 µM (inactive) | > 100 µM (inactive) | > 100 µM (inactive) | 35.1 µM (inactive) | 35.1 µM (inactive) | 42.8 µM (inactive) | 72.3 µM (inactive) | 47.9 µM (inactive) | > 100 µM (inactive) | 15.1 µM (inactive) | 54.1 µM (inactive) | 17.1 µM (inactive) | 29.9 µM (inactive) | 41.6 µM (inactive) | –
10 | Cn1c(=O)c2c(nc3n(Cc4ccccc4)c(=O)c(Br)cn23)n(C)c1=O | > 100 µM (inactive) | > 100 µM (inactive) | > 100 µM (inactive) | > 100 µM (inactive) | > 100 µM (inactive) | > 100 µM (inactive) | > 100 µM (inactive) | > 100 µM (inactive) | > 100 µM (inactive) | > 100 µM (inactive) | > 100 µM (inactive) | > 100 µM (inactive) | > 100 µM (inactive) | – | > 100 µM (inactive) | > 100 µM (inactive) | > 100 µM (inactive) | > 100 µM (inactive) | > 100 µM (inactive) | > 100 µM (inactive)
